One experiment has as its target CaCiv1 (Candida albicans, UniProt A0A1D8PH53). Nature of the experiment: Assay for inhibition of CIV-CDK (CIV1) activity. The format is biochemical. To be noted: CaCiv1 with Cdk2 substrate, [33P]ATP, 30 min ambient temperature; read-out: IC50 as micromolar. From the text: 1) Assay for Inhibition of CIV-CDK (CIV1) Activity
a) Preparation of the Reagents

In another experiment the target is T1, SRC kinase (Homo sapiens, UniProt P12931).
T1 construct: purchased Upstate Biotechnology 14-117
T1 sequence (P12931 whole entry): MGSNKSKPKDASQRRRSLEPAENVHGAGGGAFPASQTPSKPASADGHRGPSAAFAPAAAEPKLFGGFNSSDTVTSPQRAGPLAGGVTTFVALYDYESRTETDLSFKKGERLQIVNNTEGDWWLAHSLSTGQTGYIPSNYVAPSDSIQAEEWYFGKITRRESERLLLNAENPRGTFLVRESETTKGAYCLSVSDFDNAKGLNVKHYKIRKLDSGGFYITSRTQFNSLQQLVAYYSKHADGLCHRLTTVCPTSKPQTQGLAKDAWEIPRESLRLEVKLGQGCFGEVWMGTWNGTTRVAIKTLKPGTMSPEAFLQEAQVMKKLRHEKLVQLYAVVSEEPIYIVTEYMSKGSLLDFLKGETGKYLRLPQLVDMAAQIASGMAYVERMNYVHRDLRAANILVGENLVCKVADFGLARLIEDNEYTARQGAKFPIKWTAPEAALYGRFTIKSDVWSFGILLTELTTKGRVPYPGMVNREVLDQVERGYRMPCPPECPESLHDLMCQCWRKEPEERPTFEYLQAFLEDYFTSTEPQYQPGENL
Nature of the experiment: Assay for inhibition of SRC kinase activity. The format is biochemical. The note with it: fluorescence polarization, read-out: percentage inhibition at 20 μM. As for the experimental part:
2) Assay for Inhibition of SRC Kinase Activity
The inhibition is determined by fluorescence polarization, the […] kinase phosphorylates a peptide detected by adding an anti-phosphopeptide antibody coupled to a fluorescent label.
The assay is carried out in a final volume of 50 μl; all the reagents are prepared in a buffer: • 25 mM HEPES/NaOH pH 7.6 • 5 mM MgCl2 • 2 mM MnCl2 • 50 μM Na2VO4 5 μl of the 10-times concentrated inhibitor are added to 25 μl of enzyme (12 U/ml final concentration), (Upstate Biotechnology ref 14-117). After incubation for 5 minutes at ambient temperature, 10 μl of PolyGluTyr 4/1 (150 ng/ml final concentration) and 10 μl of ATP (5 μM final concentration) are added. The detection is carried out after incubation for 20 minutes at ambient temperature. • Results obtained expressed as percentage inhibition at 20 μM • Example 8 98% • Example 15 99% • Example 20 99% • Example 24 99% • Example 27 95% • Example 30 99% • Example 32 100% • Example 38 95% 3) Assay for Inhibition of CDK2 Activity
In general terms: Fluorescence polarisation rises when a labelled molecule tumbles more slowly, as on binding a larger partner.

In another experiment the target is T2, ZAP kinase (Homo sapiens, UniProt P43403).
T2 construct: purchased Panvera P2782
T2 sequence (P43403 1-619): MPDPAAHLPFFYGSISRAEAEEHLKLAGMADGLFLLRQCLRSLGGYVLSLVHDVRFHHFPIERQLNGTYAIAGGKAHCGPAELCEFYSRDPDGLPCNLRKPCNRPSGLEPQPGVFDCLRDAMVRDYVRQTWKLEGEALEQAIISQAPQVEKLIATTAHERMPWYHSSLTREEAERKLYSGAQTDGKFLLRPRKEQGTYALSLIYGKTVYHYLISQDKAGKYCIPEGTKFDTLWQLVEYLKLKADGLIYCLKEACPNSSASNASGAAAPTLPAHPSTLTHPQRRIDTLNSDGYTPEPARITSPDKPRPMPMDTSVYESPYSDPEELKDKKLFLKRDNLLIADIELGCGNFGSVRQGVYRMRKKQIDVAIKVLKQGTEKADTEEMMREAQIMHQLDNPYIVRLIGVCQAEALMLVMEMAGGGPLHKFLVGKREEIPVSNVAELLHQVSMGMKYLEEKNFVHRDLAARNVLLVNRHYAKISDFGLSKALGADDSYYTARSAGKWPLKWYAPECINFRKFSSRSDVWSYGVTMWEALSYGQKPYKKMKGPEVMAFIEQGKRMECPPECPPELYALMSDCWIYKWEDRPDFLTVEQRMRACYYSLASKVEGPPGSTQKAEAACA
Nature of the experiment: Assay for inhibition of ZAP kinase activity. The format is biochemical. To be noted: fluorescence polarization, read-out: percentage inhibition at 20 μM. As for the experimental part: The inhibition of the kinase activity is determined by fluorescence polarization, the ZAP kinase phosphorylates a peptide detected by adding an anti-phosphopeptide antibody coupled to a fluorescent label.
The assay is carried out in a final volume of 50 μl; all the reagents are prepared in a buffer: • 20 mM Tris/HCl pH 7.7 • 7 mM MnCl2 • 50 μM Na2VO4 5 μl of the 10-times concentrated inhibitor are added to 25 μl of enzyme (0.7 μg/ml final concentration) (Panvera ref P2782). After incubation for 5 minutes at ambient temperature, 10 μl of PolyGT (300 ng/ml final concentration) and 10 μl of ATP (0.25 μM final concentration) are added. The detection is carried out after incubation for 15 minutes at ambient temperature. • Results obtained expressed as percentage inhibition at 20 μM • Example 8 98% • Example 20 95% • Example 24 96% 7) Assay for Inhibition of Casein Kinase II Activity

The target of the next experiment is T3, EGF tyr Kinase (Homo sapiens, UniProt P00533).
T3 construct: purchased Tebu SE-124
T3 sequence (P00533 25-1210): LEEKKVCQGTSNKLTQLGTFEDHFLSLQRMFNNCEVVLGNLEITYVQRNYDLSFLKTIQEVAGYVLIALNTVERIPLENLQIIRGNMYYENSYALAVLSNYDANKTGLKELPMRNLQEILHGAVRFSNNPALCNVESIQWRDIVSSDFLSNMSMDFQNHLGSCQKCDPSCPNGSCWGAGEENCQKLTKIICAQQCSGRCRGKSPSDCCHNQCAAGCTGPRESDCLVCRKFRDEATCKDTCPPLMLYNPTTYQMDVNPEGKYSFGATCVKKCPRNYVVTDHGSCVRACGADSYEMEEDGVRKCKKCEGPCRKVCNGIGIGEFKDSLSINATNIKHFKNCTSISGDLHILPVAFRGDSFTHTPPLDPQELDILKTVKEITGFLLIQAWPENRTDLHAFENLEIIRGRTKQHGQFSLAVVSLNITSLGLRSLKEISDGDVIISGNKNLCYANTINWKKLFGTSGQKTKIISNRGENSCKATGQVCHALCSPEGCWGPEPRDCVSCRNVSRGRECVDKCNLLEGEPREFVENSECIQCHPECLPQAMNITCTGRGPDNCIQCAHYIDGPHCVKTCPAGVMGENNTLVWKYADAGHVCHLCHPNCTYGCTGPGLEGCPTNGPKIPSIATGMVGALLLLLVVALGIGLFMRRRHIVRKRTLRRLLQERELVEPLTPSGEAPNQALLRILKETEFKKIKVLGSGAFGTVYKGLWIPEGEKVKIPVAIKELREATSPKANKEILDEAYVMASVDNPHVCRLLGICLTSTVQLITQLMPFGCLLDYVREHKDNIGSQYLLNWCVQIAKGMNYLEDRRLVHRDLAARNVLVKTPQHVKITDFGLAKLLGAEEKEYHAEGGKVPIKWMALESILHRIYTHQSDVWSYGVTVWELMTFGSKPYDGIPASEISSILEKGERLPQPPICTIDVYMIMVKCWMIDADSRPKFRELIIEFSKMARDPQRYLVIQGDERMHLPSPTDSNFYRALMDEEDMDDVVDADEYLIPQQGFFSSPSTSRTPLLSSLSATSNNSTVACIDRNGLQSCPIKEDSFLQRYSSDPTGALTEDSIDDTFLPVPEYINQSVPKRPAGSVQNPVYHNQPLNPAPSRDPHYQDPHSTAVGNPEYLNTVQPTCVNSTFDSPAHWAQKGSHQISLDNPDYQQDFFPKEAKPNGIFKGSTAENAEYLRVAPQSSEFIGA
Nature of the experiment: Assay for inhibition of EGF tyr kinase activity. The note with it: [33P]ATP, read-out: percentage inhibition at 20 μM. The experiment is classed as biochemical. As for the experimental part:
The inhibition of the kinase activity is determined by measuring the phosphorylation of its substrate peptide.
The assay is carried out in a final volume of 100 μl.
The incubation buffer is as follows:
• 5 mM Hepes/Tris pH 7.4 • 2% Glycerol • 0.2% triton X100 10 μl of the 10-times concentrated inhibitor are added to 20 μl of incubation buffer containing 1 U/μl final concentration of the enzyme (Tebu, SE-124); 30 μl of incubation buffer containing 0.43 mg/ml final concentration of peptide substrate are then added along with 20 μl of incubation buffer containing 0.4 μM of enzyme and, finally, 20 μl of 6 mM tris/HCl pH 7.4, 15 mM MgCl2 buffer containing 10 μM ATP and radiolabeled ATP, [^33P]ATP (0.25 μCi), are added. The reaction is stopped after incubation for 60 minutes at 30° C. • Results obtained expressed as percentage inhibition at 20 μM • Example 20 100% 10) Assay for Inhibition of AKT Activity

The target in a further experiment is FAK (Homo sapiens, UniProt Q05397). Nature of the experiment: Assay for inhibition of FAK activity (autophosphorylation). The experiment is classed as biochemical. The note with it: fluorescence polarization, ATP 1 μM; read-out: IC50s expressed as micromolar. As for the experimental part: The inhibition of the kinase activity is determined by fluorescence polarization, the autophosphorylation of FAK is detected by adding an anti-phosphoprotein antibody coupled to a fluorescent label.
FAK, sequence (Q05397 whole entry, species assumed): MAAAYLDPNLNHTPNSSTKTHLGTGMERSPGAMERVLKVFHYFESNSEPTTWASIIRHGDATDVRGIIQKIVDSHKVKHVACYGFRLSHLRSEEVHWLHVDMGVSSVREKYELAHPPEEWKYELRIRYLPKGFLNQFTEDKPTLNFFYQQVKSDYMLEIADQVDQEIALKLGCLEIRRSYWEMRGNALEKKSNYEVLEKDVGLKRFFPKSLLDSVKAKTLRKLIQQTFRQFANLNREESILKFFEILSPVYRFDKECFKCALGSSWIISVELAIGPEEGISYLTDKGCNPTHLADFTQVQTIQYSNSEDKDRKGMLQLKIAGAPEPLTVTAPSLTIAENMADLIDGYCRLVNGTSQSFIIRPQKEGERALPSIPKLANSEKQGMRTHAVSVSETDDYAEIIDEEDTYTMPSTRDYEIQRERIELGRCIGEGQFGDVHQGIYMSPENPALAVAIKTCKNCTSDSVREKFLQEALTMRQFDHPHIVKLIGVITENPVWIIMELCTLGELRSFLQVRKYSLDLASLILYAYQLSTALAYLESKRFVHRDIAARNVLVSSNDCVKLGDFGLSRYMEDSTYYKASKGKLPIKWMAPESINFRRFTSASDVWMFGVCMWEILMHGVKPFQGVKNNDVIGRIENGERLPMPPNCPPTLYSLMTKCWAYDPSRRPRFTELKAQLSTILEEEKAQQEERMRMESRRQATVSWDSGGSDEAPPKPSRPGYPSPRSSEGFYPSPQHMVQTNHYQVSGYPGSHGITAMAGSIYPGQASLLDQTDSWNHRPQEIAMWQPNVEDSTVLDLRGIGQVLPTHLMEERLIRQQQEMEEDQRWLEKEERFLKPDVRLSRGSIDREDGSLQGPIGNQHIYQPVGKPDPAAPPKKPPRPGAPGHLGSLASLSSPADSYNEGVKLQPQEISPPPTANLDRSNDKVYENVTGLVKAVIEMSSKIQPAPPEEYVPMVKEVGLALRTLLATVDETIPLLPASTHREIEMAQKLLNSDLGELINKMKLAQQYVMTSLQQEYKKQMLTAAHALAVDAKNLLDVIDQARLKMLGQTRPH
The assay is carried out in a final volume of 30 μl; all the reagents are prepared in a buffer: • 50 mM HEPES pH 7.5 • 0.03% triton X100 • 10 mM MgCl2 • 5% Glycerol • 1 mM DTT 10 μl of the 10-times concentrated inhibitor are added to 5 μl of enzyme (100 ng final concentration), and 5 μl of incubation buffer and 10 μl of ATP (1 μM final concentration) are added.

A further experiment concerns Aspergillus fumigatus. Nature of the experiment: Minimum inhibitory concentration in liquid medium, micro method (NCCLS M27-A). The experiment is classed as cell-based. The note with it: at least 80% inhibition of growth, read after 48-72 h at 37° C., RPMI 1640. The method, then:
(§1) The assay is carried out in a final volume of 40 μl; all the reagents are prepared in a buffer: • 50 mM HEPES pH 7.5 • 0.03% triton X100 • 10 mM MgCl2 • 5% Glycerol • 1 mM DTT 10 μl of the 10-times concentrated inhibitor are added to 5 μl of enzyme (75 ng final concentration), and 5 μl of peptide (1 μM final concentration), then 2.5 μl of incubation buffer containing 40 μM ATP and 2.5 μl of radiolabeled ATP, [^33P]ATP (500 nCi), are added. After incubation for 15 minutes at ambient temperature, 10 μl of incubation buffer containing 192 nM of substrate. […] Reference method for broth dilution antifungal susceptibility testing of yeasts. Approved Standard M27-A. NCCLS, Villanova, Pa.); the minimum concentration with which a visible decrease is observed in the cloudiness of the cell growth (at least 80% compared to a control without product) is the Minimum Inhibitory Concentration (MIC) of the antifungal agent with respect to the strain tested.
(§2) RPMI 1640 medium (liquid) without L-glutamine is supplemented with L-glutamine (0.3 g/l or 10.5 ml of a solution at 200 mM) and buffered with 34.54 g/l (0.165 M) of morpholinepropanesulfonic acid (MOPS). The medium is sterilized by filtration. 100 μl of RPMI medium are distributed into each well of a 96-well plate. The appropriate volume. of the antifungal solution is distributed in the first column of the microplate and supplemented with 200 μl of medium. Doubling dilutions are made so as to establish a range of 11 concentrations in each line of the microplate. The 12th well of each row will serve as a growth control. The cell suspension is prepared from a culture (liquid or agar) or from a frozen vial, and is diluted in RPMI medium so as to obtain a cell suspension at 5×10^3−2×10^4 cells/ml. 100 μl of the cell suspension are distributed in the microplate. For all species of Candida, the MIC is read after 24-48 h, and for Cryptococcus and Aspergillus after 48-72 h, of incubation at 37° C. in a normal atmosphere. The MIC is read by visual reading, determining the well which contains the lowest dose of antifungal agent which causes at least 80% inhibition of the growth of the fungus.

The subject of the next experiment is Candida albicans. The experiment is described as above. The note with it: read-out: MIC Candida albicans. The experiment is classed as cell-based. As for the experimental part:
as §1, §2

The next experiment has as its system Candida glabrata. Described as above. The experiment is classed as cell-based. To be noted: Nakaseomyces glabratus, read-out: MIC Candida glabrata. As for the experimental part:
as §1, §2

Each structure is given as a SMILES string. Values after ≈ are worked out from the molar mass of the structure shown.

CaCiv1, sequence (A0A1D8PH53 entry or part of it): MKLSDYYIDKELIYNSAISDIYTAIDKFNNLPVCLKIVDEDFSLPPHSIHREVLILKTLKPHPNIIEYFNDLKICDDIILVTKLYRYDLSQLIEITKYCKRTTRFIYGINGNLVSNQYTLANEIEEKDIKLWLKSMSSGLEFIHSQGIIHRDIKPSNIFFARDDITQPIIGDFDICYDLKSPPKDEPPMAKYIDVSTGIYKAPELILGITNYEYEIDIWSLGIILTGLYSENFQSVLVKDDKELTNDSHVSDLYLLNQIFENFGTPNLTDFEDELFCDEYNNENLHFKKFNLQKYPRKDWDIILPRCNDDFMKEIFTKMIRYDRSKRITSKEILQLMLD

Consider `N[C@H]1CC[C@H](Nc2nc(-n3cnc4cc(OCc5ccccc5)ccc43)c3nc[nH]c3n2)CC1` [Example 20, Trans-N-[6-[5-(phenylmethoxy)-1H-benzimidazol-1-yl]-9H-purin-2-yl]-1,4-cyclohexanediamine], for which the IC50 at CaCiv1 stood at 1.7 µM; at FAK, 1.6 µM. For the same molecule, the results for the inhibition at 20 µM on SRC kinase, on ZAP kinase and on EGF tyr Kinase were 99%, 95% and 100%, respectively. The molecule further returned an MIC Aspergillus fumigatus in the experiment on Aspergillus fumigatus of 32 µg/mL (≈ 70.4 µM). In addition, the MIC in the experiment with Candida albicans amounted to 32 µg/mL (≈ 70.4 µM); in the experiment on Candida glabrata it was 16 µg/mL (≈ 35.2 µM).

What is called inhibition is the drop in the measured response relative to a control, in per cent. The MIC is the lowest concentration that inhibits growth of the organism.

The record behind these values is US7476670B2, “Purine derivatives, method for preparing, pharmaceutical compositions and novel use” (Aventis Pharma S.A., priority 2003, dated 2009).
